Laboratory results: patent US20110015067A1, “Herbicidal Compositions Comprising Pyroxasulfone” (BASF SE, priority 2008, published 2011)
Like-named read-outs stand apart in the source and are kept apart here.

How the values were obtained:
[1] = tested on: CCHEC (Cenchrus echinatus); experiment: pre-emergence greenhouse test; type: in vivo
How it was run: (§1)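 Visual damage ratings, 0% meaning no effect and 100% complete plant destruction relative to untreated controls, were taken 8 and/or 20 days after a pre-emergence spray. Actives were applied in water directly after sowing, solo or as mixtures.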

[2] = tested on: DIGSA (Digitaria sanguinalis); experiment: pre-emergence greenhouse test; type: in vivo; settings: DIGSA pre-emergence 25 g ai/ha
How it was run: as §1

[3] = tested on: ECHCG (Echinochloa crus-galli); experiment: pre-emergence greenhouse test; type: in vivo; settings: for inhibition at 25 g/ha: Echinochloa crus-galli, use rate 25 g ai/ha, read-out: observed % activity; for inhibition at 25 g/ha / observed activity in % destruction: pre-emergence
How it was run: (§2)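 Herbicide A and safener were formulated as 10% by weight suspension concentrates, herbicide B as commercial product, all diluted in water and sprayed onto soil just after sowing. Percent damage compared with untreated controls was recorded 8 and/or 20 DAT.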

[4] = tested on: BRAPL (Brachiaria plantaginea); experiment: pre-emergence greenhouse test; type: in vivo; settings: for observed activity in % destruction: pre-emergence
How it was run: as §1

SETVI (Setaria viridis) = experiment: pre-emergence greenhouse test; type: in vivo; settings: for observed activity in % destruction: pre-emergence
How it was run: as §1

SETFA (Setaria faberii) = experiment: pre-emergence greenhouse test; type: in vivo; settings: SETFA pre-emergence 25 g ai/ha
How it was run: as §1

[5] = tested on: AMBEL (Ambrosia artemisifolia); experiment: pre-emergence greenhouse test; type: in vivo; settings: for observed activity in % destruction: pre-emergence, 50 g ai/ha
How it was run: as §1

ERBVI = experiment: pre-emergence greenhouse test; type: in vivo; settings: for observed activity in % destruction: pre-emergence, 25 g ai/ha
How it was run: as §2

SOLNI (Solanum nigrum) = experiment: pre-emergence greenhouse test; type: in vivo; settings: for inhibition at 50 g/ha: Solanum nigrum, use rate 50 g ai/ha, read-out: observed % activity; for inhibition at 50 g/ha / observed activity in % destruction: pre-emergence
How it was run: as §2

[6] = tested on: ABUTH (Abutilon theophrasti); experiment: pre-emergence greenhouse test; type: in vivo; settings: for observed activity in % destruction: pre-emergence, 50 g ai/ha
How it was run: as §1

[7] = tested on: PANMI (Panicum milliaceum); experiment: pre-emergence greenhouse test; type: in vivo
How it was run: as §1

[8] = tested on: LOLMU (Lolium multiflorum); experiment: pre-emergence greenhouse test; type: in vivo; settings: for observed activity in % destruction: pre-emergence
How it was run: as §1

PHBPU (Ipomoea purpurea) = experiment: pre-emergence greenhouse test; type: in vivo; settings: for observed activity in % destruction: pre-emergence, 50 g ai/ha
How it was run: as §1

harmful plants = settings: known from Y. Yamaji et al. 2006; cited from earlier work
[9] = ECHCG pre-emergence 12.5 g ai/ha
[10] = BRAPL pre-emergence 6.25 g ai/ha
[11] = BRAPL pre-emergence 12.5 g ai/ha
[12] = SETVI pre-emergence 6.25 g ai/ha
[13] = SETVI pre-emergence 12.5 g ai/ha
[14] = ABUTH pre-emergence 6.25 g ai/ha
[15] = ABUTH pre-emergence 12.5 g ai/ha

Cn1nc(C(F)(F)F)c(CS(=O)(=O)C2=NOC(C)(C)C2)c1OC(F)F [pyroxasulfone, 3-[5-(difluoromethoxy)-1-methyl-3-(trifluoromethyl)pyrazol-4-ylmethylsulfonyl]-4,5-dihydro-5,5-dimethyl-1,2-oxazole]
observed % destruction 20 DAT ([1]; CCHEC pre-emergence 6.25 g ai/ha): 35%
observed % destruction 20 DAT ([1]; CCHEC pre-emergence 12.5 g ai/ha): 65%
observed % destruction 8 DAT [2]: 90%
observed % destruction 20 DAT [2]: 100%
observed % destruction 8 DAT [3, 9]: 70%
observed % destruction 20 DAT [3, 9]: 98%
observed % destruction 8 DAT ([3]; ECHCG pre-emergence 25 g ai/ha): 75%
observed % destruction 20 DAT ([3]; ECHCG pre-emergence 25 g ai/ha): 98%
observed % destruction 8 DAT ([3]; ECHCG pre-emergence 50 g ai/ha): 90%
observed % destruction 20 DAT ([3]; ECHCG pre-emergence 50 g ai/ha): 100%
inhibition at 25 g/ha ([3]; 192 h, 8 DAT): 75%
inhibition at 25 g/ha ([3]; 480 h, 20 DAT): 98%
observed activity in % destruction ([3]; 12.5 g ai/ha, 8 DAT): 70%
observed activity in % destruction ([3]; 12.5 g ai/ha, 20 DAT): 98%
observed activity in % destruction ([3]; 25 g ai/ha, 8 DAT): 75%
observed activity in % destruction ([3]; 25 g ai/ha, 20 DAT): 98%
observed activity in % destruction ([3]; 50 g ai/ha, 8 DAT): 90%
observed activity in % destruction ([3]; 50 g ai/ha, 20 DAT): 100%
observed % destruction 8 DAT [4, 10]: 30%
observed % destruction 20 DAT [4, 10]: 70%
observed % destruction 8 DAT [4, 11]: 35%
observed % destruction 20 DAT [4, 11]: 80%
observed % destruction 8 DAT ([4]; BRAPL pre-emergence 25 g ai/ha): 60%
observed % destruction 20 DAT ([4]; BRAPL pre-emergence 25 g ai/ha): 95%
observed % destruction 20 DAT ([4]; BRAPL pre-emergence 50 g ai/ha): 98%
observed activity in % destruction ([4]; 12.5 g ai/ha, 8 DAT): 35%
observed activity in % destruction ([4]; 12.5 g ai/ha, 20 DAT): 80%
observed activity in % destruction ([4]; 25 g ai/ha, 8 DAT): 60%
observed activity in % destruction ([4]; 25 g ai/ha, 20 DAT): 95%
observed activity in % destruction ([4]; 50 g ai/ha, 8 DAT): 70%
observed activity in % destruction ([4]; 50 g ai/ha, 20 DAT): 98%
observed % destruction 8 DAT (SETVI (Setaria viridis); [12]): 30%
observed % destruction 20 DAT (SETVI (Setaria viridis); [12]): 75%
observed % destruction 8 DAT (SETVI (Setaria viridis); [13]): 70%
observed % destruction 20 DAT (SETVI (Setaria viridis); [13]): 95%
observed % destruction 8 DAT (SETVI (Setaria viridis); SETVI pre-emergence 25 g ai/ha): 80%
observed % destruction 20 DAT (SETVI (Setaria viridis); SETVI pre-emergence 25 g ai/ha): 98%
observed % destruction 8 DAT (SETVI (Setaria viridis); SETVI pre-emergence 50 g ai/ha): 90%
observed % destruction 20 DAT (SETVI (Setaria viridis); SETVI pre-emergence 50 g ai/ha): 100%
observed activity in % destruction (SETVI (Setaria viridis); 6.25 g ai/ha, 8 DAT): 30%
observed activity in % destruction (SETVI (Setaria viridis); 6.25 g ai/ha, 20 DAT): 75%
observed activity in % destruction (SETVI (Setaria viridis); 12.5 g ai/ha, 8 DAT): 70%
observed activity in % destruction (SETVI (Setaria viridis); 12.5 g ai/ha, 20 DAT): 95%
observed activity in % destruction (SETVI (Setaria viridis); 50 g ai/ha, 8 DAT): 90%
observed activity in % destruction (SETVI (Setaria viridis); 50 g ai/ha, 20 DAT): 100%
observed % destruction 20 DAT (SETFA (Setaria faberii)): 98%
observed % destruction 20 DAT ([5]; AMBEL pre-emergence 6.25 g ai/ha): 0%
observed % destruction 20 DAT ([5]; AMBEL pre-emergence 12.5 g ai/ha): 40%
observed % destruction 20 DAT ([5]; AMBEL pre-emergence 25 g ai/ha): 40%
observed % destruction 8 DAT ([5]; AMBEL pre-emergence 50 g ai/ha): 50%
observed % destruction 20 DAT ([5]; AMBEL pre-emergence 50 g ai/ha): 85%
observed activity in % destruction ([5]; 8 DAT): 50%
observed activity in % destruction ([5]; 20 DAT): 85%
observed % destruction 20 DAT (ERBVI; ERBVI pre-emergence 6.25 g ai/ha): 40%
observed % destruction 20 DAT (ERBVI; ERBVI pre-emergence 12.5 g ai/ha): 55%
observed % destruction 8 DAT (ERBVI; ERBVI pre-emergence 25 g ai/ha): 60%
observed % destruction 20 DAT (ERBVI; ERBVI pre-emergence 25 g ai/ha): 75%
observed activity in % destruction (ERBVI; 8 DAT): 60%
observed activity in % destruction (ERBVI; 20 DAT): 75%
observed % destruction 20 DAT (SOLNI (Solanum nigrum); SOLNI pre-emergence 6.25 g ai/ha): 50%
observed % destruction 20 DAT (SOLNI (Solanum nigrum); SOLNI pre-emergence 12.5 g ai/ha): 70%
observed % destruction 20 DAT (SOLNI (Solanum nigrum); SOLNI pre-emergence 25 g ai/ha): 90%
observed % destruction 8 DAT (SOLNI (Solanum nigrum); SOLNI pre-emergence 50 g ai/ha): 50%
observed % destruction 20 DAT (SOLNI (Solanum nigrum); SOLNI pre-emergence 50 g ai/ha): 95%
inhibition at 50 g/ha (SOLNI (Solanum nigrum); 192 h, 8 DAT): 50%
inhibition at 50 g/ha (SOLNI (Solanum nigrum); 480 h, 20 DAT): 95%
observed activity in % destruction (SOLNI (Solanum nigrum); 12.5 g ai/ha, 8 DAT): 30%
observed activity in % destruction (SOLNI (Solanum nigrum); 12.5 g ai/ha, 20 DAT): 70%
observed activity in % destruction (SOLNI (Solanum nigrum); 25 g ai/ha, 8 DAT): 30%
observed activity in % destruction (SOLNI (Solanum nigrum); 25 g ai/ha, 20 DAT): 90%
observed activity in % destruction (SOLNI (Solanum nigrum); 50 g ai/ha, 8 DAT): 50%
observed activity in % destruction (SOLNI (Solanum nigrum); 50 g ai/ha, 20 DAT): 95%
observed % destruction 8 DAT [6, 14]: 0%
observed % destruction 20 DAT [6, 14]: 30%
observed % destruction 8 DAT [6, 15]: 0%
observed % destruction 20 DAT [6, 15]: 40%
observed activity in % destruction ([6]; 8 DAT): 40%
observed activity in % destruction ([6]; 20 DAT): 95%
observed % destruction 20 DAT ([7]; PANMI pre-emergence 6.25 g ai/ha): 35%
observed % destruction 20 DAT ([7]; PANMI pre-emergence 25 g ai/ha): 85%
observed % destruction 8 DAT ([7]; PANMI pre-emergence 50 g ai/ha): 75%
observed % destruction 20 DAT ([7]; PANMI pre-emergence 50 g ai/ha): 90%
observed % destruction 20 DAT ([8]; LOLMU pre-emergence 6.25 g ai/ha): 50%
observed % destruction 20 DAT ([8]; LOLMU pre-emergence 12.5 g ai/ha): 65%
observed % destruction 20 DAT ([8]; LOLMU pre-emergence 50 g ai/ha): 98%
observed activity in % destruction ([8]; 6.25 g ai/ha, 8 DAT): 40%
observed activity in % destruction ([8]; 6.25 g ai/ha, 20 DAT): 50%
observed activity in % destruction ([8]; 12.5 g ai/ha, 8 DAT): 50%
observed activity in % destruction ([8]; 12.5 g ai/ha, 20 DAT): 65%
observed activity in % destruction ([8]; 50 g ai/ha, 8 DAT): 90%
observed activity in % destruction ([8]; 50 g ai/ha, 20 DAT): 98%
observed % destruction 20 DAT (PHBPU (Ipomoea purpurea); PHBPU pre-emergence 6.25 g ai/ha): 0%
observed % destruction 20 DAT (PHBPU (Ipomoea purpurea); PHBPU pre-emergence 12.5 g ai/ha): 55%
observed % destruction 20 DAT (PHBPU (Ipomoea purpurea); PHBPU pre-emergence 50 g ai/ha): 75%
observed activity in % destruction (PHBPU (Ipomoea purpurea); 8 DAT): 30%
observed activity in % destruction (PHBPU (Ipomoea purpurea); 20 DAT): 75%
post-emergence activity (harmful plants): poor
